Holding throughout (format): in vivo
Series [1] deals with Tetranychus urticae. The series is described as follows: Prevention/extermination test against Tetranychus urticae (500 ppm). The conditions noted are these: 312 h, 500 ppm active ingredient, soybean seedlings inoculated with imago, 25° C., after 13 days, read-out: prevention/extermination titer (preventive titer). The protocol:
(§1) The wettable powder prepared according to the above Preparation Example 2 was diluted with water to a concentration of 500 ppm as a concentration of active ingredient. Soybean seedlings which had previously been inoculated with the imago of Tetranychus urticae were soaked in the test solution, then air dried. The treated soybean seedlings were left at the constant temperature of 25° C. After 13 days from the treatment, the number of surviving mites was counted, and the prevention/extermination titer was calculated according to the formula 2 below.
(§2) In this test, representative compounds having the acaricidal effect with more than 90 of prevention/extermination titer include compound No. 63, 93, 77, 81, 105, 169, 190, 196 and 208.

Series [2] has as its system Tetranychus urticae. The series is described as follows: Prevention/extermination test against Tetranychus urticae (0.8 ppm). The conditions noted are these: 312 h, 0.8 ppm active ingredient, soybean seedlings inoculated with imago, 25° C., after 13 days, read-out: prevention/extermination titer. On the procedure: as §1
The wettable powder prepared according to the above Preparation Example 2 was diluted with water to a concentration of 0.8 ppm as a concentration of active ingredient. The same experiment as in Test Example 2 was carried out, and the prevention/extermination titer was calculated according to the formula 2.
as §2

A further series concerns ddy mouse (Slc:ddy). As to the kind of experiment: Oral acute toxicity test. Details: key: 0/3 means none of 3 recipient animals died; 1/3 means one out of 3 recipient animals died; 2/3 means 2 out of 3 recipient animals died; 3/3 means all 3 recipient animals died. The conditions noted are these: oral 30 mg/kg, mortality investigated for 7 days; for Test result Female (mortality, animals died out of 3): female ddy mouse; for Test result Male (mortality, animals died out of 3): male ddy mouse. On the procedure:
Oral acute toxicity test was conducted according to the method described in the guideline in “Guideline for the Preparation of Test Report on the Toxicity Studies”, published by the Ministry of Agriculture, Forestry and Fisheries of Japan. Experimental animals, 3 each of male and female of 7 weeks aged ddy mouse (Slc:ddy), were obtained from SLC Japan Inc. The compounds of the present invention and the reference substances were suspended in 0.5% sodium carboxymethyl cellulose or corn oil to give a 30 (mg/kg) equivalent amount for a dosage of 10 ml per 1 kg of body weight. The suspensions were inoculated using a sonde directly into the stomach of test animals which were fasted for 3 hours before inoculation. The test animals were fasted for additional 3 hours after inoculation, and the mortality of the inoculated animal was investigated for 7 days. In this table, 0/3 means none of 3 recipient animals died, 1/3 means one out of 3 recipient animals died, 2/3 means 2 out of 3 recipient animals died, 3/3 means all 3 recipient animals died.

Another series relates to Nilaparvata lugenis. As to the kind of experiment: Insecticidal test for Nilaparvata lugenis. The following applies: 144 h, 500 ppm active ingredient (wettable powder), 4-instar larvae on germinated rice paddy, 25° C., after 6 days, read-out: mortality rate. The protocol: The wettable powder prepared according to the above Preparation Example 2 was diluted with water to a concentration of 500 ppm as a concentration of active ingredient. After soaking the germinated rice paddy in the test solution, the paddy was transferred into a 60 ml volume of plastic cup. Ten (10) heads of 4-instar larvae of Nilaparvata lugenis were inoculated on the paddy and capped, then left at the constant temperature of 25° C. After 6 days from the inoculation, the number of surviving insects was counted, and mortality rate of the insect was calculated according to the following formula 1. mortality rate (%)=[(10−number of surviving insect in the test field)/10]×100 (1)

24 molecules from patent US7273878B2, “Difluoroalkene derivative, pest control agent containing the same, and intermediate therefor” (Kumiai Chemical Industry Co., Ltd., priority 2001, dated 2007) can be followed below.

SMILES strings stand for the structures.

Turning to `CC(CCCCOC(=O)c1cnnc2ccccc12)=C(F)F` [Compound 37, 6,6-difluoro-5-methyl-5-hexenyl cinnoline-4-carboxylate], the pest or weed control at 500 ppm with Tetranychus urticae [1] is over 90%.
`CC(CCCCOC(=O)c1ccc2nn(CCCCC(C)=C(F)F)nc2c1)=C(F)F` [Compound 31, 6,6-difluoro-5-methyl-5-hexenyl 2-(6,6-difluoro-5-methyl-5-hexenyl)-2H-benzotriazole-5-carboxylate]: in the series with Tetranychus urticae [1], the pest or weed control at 500 ppm was over 90%.
For the molecule `CC(CCOC(=O)c1cnc(-c2ccccc2)s1)=C(F)F` [Compound 190, 4,4-difluoro-3-methyl-3-butenyl 2-phenylthiazole-5-carboxylate], in the series on Tetranychus urticae [2], the pest or weed control at 0.8 ppm was over 90%.
Regarding `CC(CCOC(=O)c1cnc(-c2ccccc2)nc1C)=C(F)F` [Compound 93, 4,4-difluoro-3-methyl-3-butenyl 4-methyl-2-phenyl-pyrimidine-5-carboxylate], in the series on ddy mouse (Slc:ddy), the “Test result Female (mortality, animals died out of 3)” value (from here on “Test result Female”) is 0/3 and the “Test result Male (mortality, animals died out of 3)” value (“Test result Male” for short) is 0/3. Moreover, the pest or weed control at 0.8 ppm with Tetranychus urticae [2] is over 90%.
In the case of `CC(CCCCOC(=O)c1c(-c2ccccc2)noc1C)=C(F)F` [Compound 12, 6,6-difluoro-5-methyl-5-hexenyl 5-methyl-3-phenyl-isoxazole-4-carboxylate], the pest or weed control at 500 ppm in the series with Tetranychus urticae [1] is over 90%.
Turning to `CC(CCCCOC(=O)c1cnc2ccccc2n1)=C(F)F` [Compound 32, 6,6-difluoro-5-methyl-5-hexenyl quinoxaline-2-carboxylate], in the series on Nilaparvata lugenis, the mortality at 500 ppm was at least 90%. For the same molecule, the pest or weed control at 500 ppm in the series with Tetranychus urticae [1] is over 90%.
As for `CC(CCCCOC(=O)c1ccc2c(c1)ncn2CCCCC(C)=C(F)F)=C(F)F` [Compound 35, 6,6-difluoro-5-methyl-5-hexenyl 1-(6,6-difluoro-5-methyl-5-hexenyl)-1H-benzoimidazole-5-carboxylate], in the series on Tetranychus urticae [1], the pest or weed control at 500 ppm was over 90%.
Take `CC(CCOC(=O)c1sc(C2CCCCC2)nc1C)=C(F)F` [Compound 169, 4,4-difluoro-3-methyl-3-butenyl 2-cyclohexyl-4-methylthiazole-5-carboxylate]: the mortality at 500 ppm with Nilaparvata lugenis was at least 90%. In the series with Tetranychus urticae [2], the pest or weed control at 0.8 ppm was over 90%.
For the molecule `CC(CCOC(=O)c1cn(-c2ccccc2)nc1C)=C(F)F` [Compound 196, 4,4-difluoro-3-methyl-3-butenyl 3-methyl-1-phenyl-1H-pyrazole-4-carboxylate], the pest or weed control at 0.8 ppm with Tetranychus urticae [2] is over 90%.
As to `CC(CCCCOC(=O)c1cc2ccccc2cn1)=C(F)F` [Compound 27, 6,6-difluoro-5-methyl-5-hexenyl isoquinoline-3-carboxylate], the pest or weed control at 500 ppm in the series with Tetranychus urticae [1] was over 90%.
Regarding `CC(CCCCOC(=O)c1ccc2nsnc2c1)=C(F)F` [Compound 42, 6,6-difluoro-5-methyl-5-hexenyl benzo[1,2,5]-thiadiazole-5-carboxylate], the pest or weed control at 500 ppm in the series with Tetranychus urticae [1] is over 90%.
Consider `CCCCOc1ccc(C(=O)OCCC(C)=C(F)F)cn1` [Compound 77, 4,4-difluoro-3-methyl-3-butenyl 6-butoxynicotinate], for which, in the series on ddy mouse (Slc:ddy), the “Test result Female” value is given as 0/3 and the “Test result Male” value is 0/3. For the same molecule, the pest or weed control at 0.8 ppm with Tetranychus urticae [2] is over 90%.
With `CC(CCCCOC(=O)c1c[nH]c2ccccc12)=C(F)F` [Compound 13, 6,6-difluoro-5-methyl-5-hexenyl 1H-indole-3-carboxylate], in the series with Tetranychus urticae [1], the pest or weed control at 500 ppm was over 90%.
`CCN(c1ccc(C)cc1)c1nc(C)c(C(=O)OCCC(C)=C(F)F)s1` [Compound 185, 4,4-difluoro-3-methyl-3-butenyl 2-(N-ethyl-N-4-tolylamino)-4-methylthiazole-5-carboxylate]: the pest or weed control at 500 ppm in the series on Tetranychus urticae [1] was over 90%.
Consider `CCCCn1ncc(C(=O)OCCC(C)=C(F)F)c1C` [Compound 203, 4,4-difluoro-3-methyl-3-butenyl 1-butyl-5-methyl-1H-pyrazole-4-carboxylate], for which, in the series with Tetranychus urticae [1], the pest or weed control at 500 ppm is over 90%.
For `CC(CCOC(=O)c1ccc(OC2CCCC2)nc1)=C(F)F` [Compound 81, 4,4-difluoro-3-methyl-3-butenyl 6-cyclopentyloxy-nicotinate], in the series with ddy mouse (Slc:ddy), the “Test result Female” value is listed as 0/3 and the “Test result Male” value is 0/3. In the series with Tetranychus urticae [2], the pest or weed control at 0.8 ppm is over 90%.
For the molecule `CCCCOc1ncc(C(=O)OCCC(C)=C(F)F)c(C)n1` [Compound 105, 4,4-difluoro-3-methyl-3-butenyl 2-butoxy-4-methyl-pyrimidine-5-carboxylate], in the series on ddy mouse (Slc:ddy), the “Test result Female” value is on record as 0/3 and the “Test result Male” value is recorded as 0/3. Moreover, the pest or weed control at 0.8 ppm in the series on Tetranychus urticae [2] was over 90%.
As for `CC(CCOC(=O)c1sc(-c2ccccc2)nc1C)=C(F)F` [Compound 63, 4,4-difluoro-3-methyl-3-butenyl 4-methyl-2-phenyl-thiazole-5-carboxylate], in the series on ddy mouse (Slc:ddy), the “Test result Female” value is on record as 0/3 and the “Test result Male” value is given as 0/3. Further, the pest or weed control at 0.8 ppm with Tetranychus urticae [2] is over 90%.
Take `CC(CCOC(=O)c1cc(-c2ccccc2)n(C)n1)=C(F)F` [Compound 194, 4,4-difluoro-3-methyl-3-butenyl 1-methyl-5-phenyl-1H-pyrazole-3-carboxylate]: in the series with Tetranychus urticae [1], the pest or weed control at 500 ppm is over 90%.
Same read-out and setting: the same measure for `CC(CCCCOC(=O)c1cc2ccccc2o1)=C(F)F` [Compound 7, 6,6-difluoro-5-methyl-5-hexenyl benzo[b]furan-2-carboxylate]: over 90%.
For `CC(CCCCOC(=O)c1n[nH]c2ccccc12)=C(F)F` [Compound 33, 6,6-difluoro-5-methyl-5-hexenyl 1H-indazole-3-carboxylate], the mortality at 500 ppm in the series with Nilaparvata lugenis was at least 90%. For the same molecule, the pest or weed control at 500 ppm in the series with Tetranychus urticae [1] is over 90%.
For the molecule `CC(CCCCOC(=O)c1sc(-c2ccccc2)nc1C)=C(F)F` [Compound 29, 6,6-difluoro-5-methyl-5-hexenyl 4-methyl-2-phenyl-thiazole-5-carboxylate], in the series on ddy mouse (Slc:ddy), the “Test result Female” value is recorded as 0/3 and the “Test result Male” value is 0/3.
`CCCCCc1cc(C(=O)OCCC(C)=C(F)F)n(C)n1` [Compound 208, 4,4-difluoro-3-methyl-3-butenyl 2-methyl-5-pentyl-2H-pyrazole-3-carboxylate]: the pest or weed control at 0.8 ppm in the series with Tetranychus urticae [2] is over 90%.
With `CC(CCCCOC(=O)c1ccc(Cl)nc1)=C(F)F` [Compound 1, 6,6-di-fluoro-5-methyl-5-hexenyl 6-chloronicotinate], the mortality at 500 ppm with Nilaparvata lugenis is at least 90%. In addition, in the series on ddy mouse (Slc:ddy), the “Test result Female” value is on record as 0/3 and the “Test result Male” value is recorded as 0/3.
